This is an account of results in ChEMBL document CHEMBL1201862, “PubChem BioAssay data set” (2004).

The nature of test [1]: Luminescence Cell-Based Dose Confirmation HTS to Identify Activators of 5'UTR Stem-Loop Driven Alpha-Synuclein mRNA Translation in H4 Neuroglioblastoma Cells. [Related pubchem assays: 1829 (Project Summary), 1814 (Primary HTS)]. The format is functional.
Test [2] is described as follows: Luminescence Cell-Based Dose Response HTS to Identify Activators of Luciferase Translation or Activity in H4 […] Cells. [Related pubchem assays: 1829 (Project Summary), 1814 (Primary HTS)]. The format is functional.
The next test has as its system H4. The test is described as follows: Luminescence Cell-Based Dose Response HTS to Identify Activators of 5'UTR Stem-Loop Driven Prion Protein mRNA Translation in H4 Neuroglioblastoma Cells. [Related pubchem assays: 1829 (Project Summary), 1814 (Primary HTS)]. The following applies: Homo sapiens. The format is functional.
A further test relates to HeLa. The test is described as follows: HeLa cell cytotoxicity, dose response, cytotoxicity control for MITF activator project, CellTiter-Glo luminescence, cherry-pick samples (AID 540259). Type of test: functional, cell-based. Particulars: Homo sapiens. In general terms: In ATP-based viability assays light output follows the ATP content of the culture.
For test [3], the system named is HEK293. The test is described as follows: cells. The format is functional, cell-based. Particulars: Homo sapiens.
The target in test [4] is T1, Nuclear receptor subfamily 0 group B member 1 (Homo sapiens, UniProt P51843).
T1 sequence (P51843 whole entry): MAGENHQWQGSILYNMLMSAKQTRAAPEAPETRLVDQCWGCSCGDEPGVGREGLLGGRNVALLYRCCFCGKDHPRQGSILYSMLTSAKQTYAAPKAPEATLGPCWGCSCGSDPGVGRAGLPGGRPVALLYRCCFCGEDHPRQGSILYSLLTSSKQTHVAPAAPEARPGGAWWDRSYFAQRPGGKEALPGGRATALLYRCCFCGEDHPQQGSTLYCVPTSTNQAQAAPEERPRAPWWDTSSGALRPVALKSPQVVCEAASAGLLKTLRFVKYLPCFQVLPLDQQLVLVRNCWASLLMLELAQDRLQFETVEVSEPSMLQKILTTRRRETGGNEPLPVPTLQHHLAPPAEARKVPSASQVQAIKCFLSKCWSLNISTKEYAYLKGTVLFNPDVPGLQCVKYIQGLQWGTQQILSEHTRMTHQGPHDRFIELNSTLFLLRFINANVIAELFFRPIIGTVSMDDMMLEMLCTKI
The test can be described thus: Luminescence-based cell-based high throughput dose response assay for inhibitors of the orphan nuclear receptor subfamily 0, group B, member 1 (DAX1; NR0B1). [Related pubchem assays (depositor defined):AID504766, AID504790]. The format is functional.

A further test addresses Trypsin (Sus scrofa, UniProt P00761). The test is described as follows: porcine trypsin inhibitors, dose response, selectivity assay for Rce1 protease inhibitor project, biochemical, quenched peptide fluorescence, cherry-pick (AID 488789).
Test [5] addresses T2, CAAX prenyl protease 2 (Saccharomyces cerevisiae S288c, UniProt Q03530).
T2 sequence (Q03530 whole entry): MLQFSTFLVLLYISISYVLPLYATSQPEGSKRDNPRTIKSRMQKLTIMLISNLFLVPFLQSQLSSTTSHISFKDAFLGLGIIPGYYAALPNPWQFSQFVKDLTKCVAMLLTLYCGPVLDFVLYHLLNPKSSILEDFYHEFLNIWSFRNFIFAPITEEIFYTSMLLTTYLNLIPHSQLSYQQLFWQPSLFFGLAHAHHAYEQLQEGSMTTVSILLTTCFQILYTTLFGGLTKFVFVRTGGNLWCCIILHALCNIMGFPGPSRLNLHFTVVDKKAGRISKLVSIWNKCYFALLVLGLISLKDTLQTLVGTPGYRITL
The format is biochemical.

For test [6], the target named is CAAX prenyl protease 2 (Homo sapiens, UniProt Q9Y256). The test can be described thus: human Rce1 protease inhibitors, dose response, biochemical, yeast membranes, quenched-peptide fluorescence, cherry-pick (AID 588849).
Test [7] can be described thus: NIH-3T3 fibroblast cytotoxicity, dose response, cytotoxicity control, cell-based, fluorescence, Alamar Blue, secondary assay (AID 2327).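 Note: NIH-3T3 mouse fibroblasts cultured with fluconazole at 8 µg/mL.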 Type of test: functional. (In general: Alamar Blue is a resazurin reagent that responds to reducing activity.)
The nature of test [8]: C. albicans growth with fluconazole, confirmation, fluorescence, retest (AID 2467). The format is functional, cell-based.
The target in test [9] is Serine/threonine-protein phosphatase (Candida dubliniensis (strain CD36 / CBS 7987 / NCPF 3949 / NRRLY-17841) (Yeast), UniProt B9W6M3). The test can be described thus: calcineurin pathway inhibitors in yeast reporter, dose response, S. cerevisiae, CDRE-lacZ, luminescence, secondary (AID 2388).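 Note: yeast reporter cells carrying a calcineurin-responsive lacZ construct stimulated with calcium chloride; luminescent beta-galactosidase reporter signal in whole cells rather than isolated phosphatase activity; potency for inhibition where a drop in reporter signal means calcineurin blockade.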 The format is functional, cell-based.
Test [10] addresses ATP-dependent molecular chaperone HSP82 (Candida albicans (strain WO-1) (Yeast), UniProt C4YTQ8). The test is described as follows: loss of DOC-induced GRE-beta-galactosidase reporter signal, dose response, Hsp90 inhibitor project, S. cerevisiae, luminescence (AID 2400).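 Note: beta-galactosidase luminescence from glucocorticoid response element reporter as proxy for Hsp90 function; inhibitor potency where signal loss means Hsp90 inhibition.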 The format is functional, cell-based.
Another test deals with Large T antigen (Simian virus 40, UniProt P03070). Type of test: functional, Betapolyomavirus macacae.
In test [11] the target is T3, Replicative DNA helicase DnaB (Mycobacterium tuberculosis, UniProt P9WMR3).
T3 sequence (P9WMR3 whole entry): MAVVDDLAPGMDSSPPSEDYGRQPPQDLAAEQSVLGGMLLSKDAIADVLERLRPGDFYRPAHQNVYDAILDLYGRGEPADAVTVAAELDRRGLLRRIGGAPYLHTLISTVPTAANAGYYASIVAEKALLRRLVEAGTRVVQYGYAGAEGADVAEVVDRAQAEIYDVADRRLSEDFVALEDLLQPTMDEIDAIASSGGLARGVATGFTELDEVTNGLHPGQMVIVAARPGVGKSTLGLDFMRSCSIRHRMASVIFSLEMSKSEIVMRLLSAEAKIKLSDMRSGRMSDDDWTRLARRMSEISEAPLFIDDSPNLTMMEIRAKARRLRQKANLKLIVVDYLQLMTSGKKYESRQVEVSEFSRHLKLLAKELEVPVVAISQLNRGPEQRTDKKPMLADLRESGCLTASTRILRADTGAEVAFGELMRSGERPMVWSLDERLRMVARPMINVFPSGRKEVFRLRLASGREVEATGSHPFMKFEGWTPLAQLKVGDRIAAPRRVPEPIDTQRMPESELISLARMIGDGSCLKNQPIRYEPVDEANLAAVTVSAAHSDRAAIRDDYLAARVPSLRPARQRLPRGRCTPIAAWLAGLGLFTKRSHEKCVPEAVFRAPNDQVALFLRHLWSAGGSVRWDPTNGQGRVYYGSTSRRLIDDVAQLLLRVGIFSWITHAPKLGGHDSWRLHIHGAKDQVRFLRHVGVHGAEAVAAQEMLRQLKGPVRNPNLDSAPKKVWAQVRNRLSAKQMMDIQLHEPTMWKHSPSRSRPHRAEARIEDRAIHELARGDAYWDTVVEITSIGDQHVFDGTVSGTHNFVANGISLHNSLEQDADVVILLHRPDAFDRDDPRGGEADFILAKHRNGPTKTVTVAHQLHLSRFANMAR
The test is described as follows: DnaB intein splicing inhibitors, dose response, biochemical, cell-free fluorescence (AID 449749). Type of test: functional.

A further test has as its target T4, Protein RecA (Mycobacterium tuberculosis, UniProt P9WHJ3).
T4 sequence (P9WHJ3 whole entry): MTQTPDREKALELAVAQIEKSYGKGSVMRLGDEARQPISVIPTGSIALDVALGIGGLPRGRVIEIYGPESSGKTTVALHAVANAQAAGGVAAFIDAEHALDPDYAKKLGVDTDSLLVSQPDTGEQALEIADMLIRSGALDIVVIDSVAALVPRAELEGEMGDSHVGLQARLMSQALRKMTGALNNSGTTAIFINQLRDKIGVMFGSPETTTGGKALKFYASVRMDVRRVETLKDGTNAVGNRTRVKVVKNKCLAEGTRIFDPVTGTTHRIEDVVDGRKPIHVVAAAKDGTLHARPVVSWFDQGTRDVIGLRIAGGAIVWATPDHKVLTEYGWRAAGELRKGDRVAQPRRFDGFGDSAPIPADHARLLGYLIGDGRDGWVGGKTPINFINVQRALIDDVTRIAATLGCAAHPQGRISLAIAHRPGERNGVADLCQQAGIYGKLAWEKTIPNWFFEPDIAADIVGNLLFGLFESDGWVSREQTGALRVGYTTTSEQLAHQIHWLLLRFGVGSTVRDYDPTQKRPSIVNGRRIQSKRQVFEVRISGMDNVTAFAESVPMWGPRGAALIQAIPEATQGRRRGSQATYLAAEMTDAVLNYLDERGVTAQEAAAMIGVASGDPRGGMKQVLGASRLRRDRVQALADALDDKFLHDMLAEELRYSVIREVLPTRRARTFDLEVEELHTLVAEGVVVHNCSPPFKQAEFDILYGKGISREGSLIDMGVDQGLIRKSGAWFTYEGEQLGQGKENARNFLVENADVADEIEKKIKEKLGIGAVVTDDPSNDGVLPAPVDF
The test can be described thus: Fluorescence Cell-Free Homogeneous Dose Retest to Identify Inhibitors of RecA-Intein Splicing Activity. [Related pubchem assays (depositor defined):AID2097, AID2223, AID489010, AID492950]. Type of test: functional.

The test system of test [12] is HEK293. The test can be described thus: cells. The following applies: Homo sapiens.
The test system of test [13] is HEK293. The test can be described thus: cells. The following applies: Homo sapiens. The source holds these as a separate data set.

The source made the active and inactive calls. Some results are limits rather than exact numbers.

Sequence of Trypsin (P00761 whole entry): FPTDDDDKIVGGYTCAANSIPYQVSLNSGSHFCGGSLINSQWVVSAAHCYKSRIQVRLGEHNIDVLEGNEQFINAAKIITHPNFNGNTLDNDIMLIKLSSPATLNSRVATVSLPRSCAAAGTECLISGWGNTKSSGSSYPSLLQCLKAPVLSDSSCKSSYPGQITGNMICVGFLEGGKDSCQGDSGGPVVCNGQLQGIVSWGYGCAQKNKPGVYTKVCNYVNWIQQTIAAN
Sequence of CAAX prenyl protease 2 (Homo sapiens, UniProt Q9Y256) (Q9Y256 whole entry): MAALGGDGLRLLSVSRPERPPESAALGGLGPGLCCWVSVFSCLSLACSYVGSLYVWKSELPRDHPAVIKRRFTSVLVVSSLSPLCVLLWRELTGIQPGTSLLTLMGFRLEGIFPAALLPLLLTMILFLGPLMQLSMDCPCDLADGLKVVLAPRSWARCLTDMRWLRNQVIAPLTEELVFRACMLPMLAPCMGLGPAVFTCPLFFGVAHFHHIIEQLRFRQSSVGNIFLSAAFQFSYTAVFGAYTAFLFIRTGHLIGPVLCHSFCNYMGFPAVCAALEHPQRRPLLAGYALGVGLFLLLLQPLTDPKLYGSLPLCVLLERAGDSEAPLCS
Sequence of Serine/threonine-protein phosphatase (B9W6M3 whole entry): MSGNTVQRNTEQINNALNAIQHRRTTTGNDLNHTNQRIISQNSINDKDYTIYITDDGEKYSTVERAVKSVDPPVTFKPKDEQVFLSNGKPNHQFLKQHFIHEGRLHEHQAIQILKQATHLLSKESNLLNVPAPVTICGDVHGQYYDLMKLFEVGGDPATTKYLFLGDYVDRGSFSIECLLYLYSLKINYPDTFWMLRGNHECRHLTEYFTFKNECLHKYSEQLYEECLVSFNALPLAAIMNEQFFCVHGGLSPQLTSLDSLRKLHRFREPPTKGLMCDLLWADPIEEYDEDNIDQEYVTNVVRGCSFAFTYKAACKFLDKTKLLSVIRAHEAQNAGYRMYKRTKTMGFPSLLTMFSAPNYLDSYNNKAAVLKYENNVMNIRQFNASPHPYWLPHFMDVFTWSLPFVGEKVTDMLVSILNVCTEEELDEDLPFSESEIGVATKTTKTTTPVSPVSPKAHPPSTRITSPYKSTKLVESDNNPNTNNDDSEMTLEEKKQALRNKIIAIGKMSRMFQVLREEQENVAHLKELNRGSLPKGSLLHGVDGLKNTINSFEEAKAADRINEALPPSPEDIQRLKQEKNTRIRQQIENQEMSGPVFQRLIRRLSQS
Sequence of ATP-dependent molecular chaperone HSP82 (C4YTQ8 whole entry): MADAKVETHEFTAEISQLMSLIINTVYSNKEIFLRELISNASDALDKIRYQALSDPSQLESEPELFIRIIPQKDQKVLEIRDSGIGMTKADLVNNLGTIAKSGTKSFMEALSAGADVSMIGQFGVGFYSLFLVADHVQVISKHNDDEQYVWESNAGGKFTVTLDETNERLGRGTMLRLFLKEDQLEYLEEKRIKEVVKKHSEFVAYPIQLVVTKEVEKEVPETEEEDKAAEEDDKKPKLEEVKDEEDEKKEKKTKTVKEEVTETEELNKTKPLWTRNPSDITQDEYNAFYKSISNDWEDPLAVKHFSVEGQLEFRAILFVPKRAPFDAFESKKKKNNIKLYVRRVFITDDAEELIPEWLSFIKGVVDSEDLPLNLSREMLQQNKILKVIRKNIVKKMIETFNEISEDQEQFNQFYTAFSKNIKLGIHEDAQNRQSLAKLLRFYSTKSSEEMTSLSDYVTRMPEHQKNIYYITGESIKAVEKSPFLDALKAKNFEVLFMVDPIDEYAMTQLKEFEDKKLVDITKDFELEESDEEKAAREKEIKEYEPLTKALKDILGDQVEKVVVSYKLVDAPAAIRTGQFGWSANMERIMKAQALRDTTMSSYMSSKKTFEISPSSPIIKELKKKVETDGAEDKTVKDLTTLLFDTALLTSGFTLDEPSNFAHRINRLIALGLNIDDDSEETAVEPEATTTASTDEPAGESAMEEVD
Sequence of Large T antigen (P03070 whole entry): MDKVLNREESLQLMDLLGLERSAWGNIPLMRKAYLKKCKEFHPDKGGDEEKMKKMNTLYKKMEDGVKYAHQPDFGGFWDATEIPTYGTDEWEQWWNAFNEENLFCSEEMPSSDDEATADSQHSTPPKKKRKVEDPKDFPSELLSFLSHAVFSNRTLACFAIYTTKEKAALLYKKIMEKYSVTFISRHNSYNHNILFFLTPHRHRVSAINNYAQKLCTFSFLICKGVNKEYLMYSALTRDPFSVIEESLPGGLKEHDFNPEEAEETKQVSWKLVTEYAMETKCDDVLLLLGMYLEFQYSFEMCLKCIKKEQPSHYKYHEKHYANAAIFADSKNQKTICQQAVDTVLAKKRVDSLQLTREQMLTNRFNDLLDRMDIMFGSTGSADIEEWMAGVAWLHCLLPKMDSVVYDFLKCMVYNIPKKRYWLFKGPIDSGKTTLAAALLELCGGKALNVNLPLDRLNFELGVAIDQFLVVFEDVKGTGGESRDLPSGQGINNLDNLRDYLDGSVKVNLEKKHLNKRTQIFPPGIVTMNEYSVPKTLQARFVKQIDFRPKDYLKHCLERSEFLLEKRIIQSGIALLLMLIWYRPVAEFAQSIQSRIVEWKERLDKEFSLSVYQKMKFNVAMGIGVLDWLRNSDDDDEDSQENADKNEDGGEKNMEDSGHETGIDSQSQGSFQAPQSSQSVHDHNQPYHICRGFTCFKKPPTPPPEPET

In general, EC50 refers to the concentration giving half of the maximal effect. As a reminder, the AC50 is the midpoint of the concentration-response curve, whichever way the signal moves. Regarding `O=c1oc2cc(Cl)ccc2n1CSc1nc2ccccc2s1`, the EC50 in [1] is 24.1 µM (active); in test [2], 24.4 µM (active); in the test on H4, 50.8 µM (active). In addition, the AC50 in the test with HeLa was 216 µM (active).
One may read the IC50 as the concentration needed to halve the response being measured. Regarding `O=C(CNC(=O)c1cc(O)nc2ccccc12)Nc1ccc(F)c(F)c1`, the IC50 (with HEK293 [3]; in test [4]) was > 67.5 µM (inactive) throughout.
As to `Cc1oc2c(CN3CCOCC3)c(O)ccc2c(=O)c1-c1ccccc1`, the AC50 at Trypsin was 9.64 µM (active); on CAAX prenyl protease 2 [5], 11 µM (active); at CAAX prenyl protease 2 [6] it was 10.3 µM (active).
Turning to `COc1ccc(C2C3=C(O)CC(C)(C)CC3=Nc3[nH]nc(C)c32)cc1` (stereo unspecified), the AC50 on Trypsin was > 100 µM (inactive); on CAAX prenyl protease 2 [6] it was 13.5 µM (active).
For `Cc1c(OCC(=O)NCC(O)c2ccccc2)ccc2c(-c3ccccc3)cc(=O)oc12` (stereo unspecified), the EC50 in [7] is 80.8 µM (active); in test [8], 0.699 µM (active); in test [9] it was > 180 µM (inactive); in test [10], > 160 µM (inactive).
Consider `O=c1c2ccccc2oc2cc(-c3ccc4cc[nH]c4c3)ccc12`, for which, in the test with HeLa, the AC50 is 53.5 µM (active).
In the case of `O=C(CCl)Nc1ccc(N2CCCCCC2)cc1`, on Large T antigen, the half-inhibitory concentration (IC50) was 18.9 µM (active). For the same compound, the AC50 in [11] was 14.3 µM (active). Also, the figures for the EC50 at Protein RecA, with HEK293 [12] and in the test with HEK293 [13] were 7.62 µM (active), > 59.7 µM (inactive) and > 59.7 µM (inactive), respectively.
